Experimental data published in patent publication US20030027819A1, “Beta-sheet mimetics and methods relating to the use thereof” (Molecumetics Ltd., priority 1996, published 2003).

biological target: thrombin (Bos taurus, UniProt P00735); assay: Thrombin inhibition by solid phase compounds of Tables 11-15; assay type: biochemical; design: 100 μl of 10 μM thrombin solution; conditions: mixtures of diastereomers; read-out: Ki as thrombin inhibitors (mark at Cpd. No.)
Experimental: Following extensive washing with DMF, the resin was treated with the acid fluoride of N-Fmoc-4-aminomethylbenzoic acid, or (81), or (86) and Hunigs' base in DMF until the Kaiser test was negative. Alternatively, the Fmoc-protected thiazole-(75) or imidazole-based (77) linkers were coupled to the resin using BOP, HOBt and DIEA. In some instances Fmoc-Leu or another amino acid was attached to the resin prior to the thiazole-(75) or imidazole-based (77) linkers via the same methodology. […] Following washing with DMF a dienoic acid was coupled to the resin-bound linkers using PyBOP, HOBt and Hunigs' base in DMF until the result of a Kaiser test was negative. The cycloaddition was performed by pretreatment of a solution of a pyrazolidinedione (not shown) or urazole in DMF with a solution of [bis(trifluoroacetoxy)iodo]benzene in DMF. […] The resin was then washed with DMF and CH2Cl2. Oxidation to the ketoamide was effected by treatment of the resin with a solution of Dess-Martin periodinane in DMSO for 60 min. […] The supernatant was collected and the resin was washed with additional TFA. The combined filtrates were concentrated in vacuo. The residue was precipitated with diethyl ether and the ether was decanted. The resulting solid was reconstituted in 1:1 CH3CN:H2O and lyophilized. […] The compounds were assayed for inhibition of coagulation enzymes as mixtures of diastereomers.

SMILES	Ki
CC(C)CC1C=CC(C(=O)NC(CCCCN)C(=O)C(=O)NCCc2ccc(C(N)=O)cc2)n2c(=O)n(C(c3ccccc3)c3ccccc3)c(=O)n21 (centres unmarked) [Structure 118]	< 0.01 µM
CC1=CC(C(=O)NC(CCCCN)C(=O)C(=O)NCc2ccc(C(=O)NCCc3ccccc3)cc2)n2c(=O)n(Cc3cc(F)ccc3F)c(=O)n2C1 (centres unmarked) [Structure 223]	< 0.01 µM
CC(C)CC1C=CC(C(=O)NC(CCCCN)C(=O)C(=O)NCCc2ccc(C(N)=O)cc2)n2c(=O)n(CCc3cccs3)c(=O)n21 (centres unmarked) [Structure 115]	< 0.01 µM
CC(C)(C)CC1C=CC(C(=O)NC(CCCCN)C(=O)C(=O)NCCc2ccc(C(N)=O)cc2)n2c(=O)n(C(Cc3ccccc3)c3ccccc3)c(=O)n21 (centres unmarked) [Structure 144]	< 0.01 µM
CCC=CCCC1C=CC(C(=O)NC(CCCCN)C(=O)C(=O)NCCc2ccc(C(N)=O)cc2)n2c(=O)n(Cc3cc(F)ccc3F)c(=O)n21 (mixture of isomers) [Structure 103]	< 0.01 µM
CC1=CC(C(=O)NC(CCCCN)C(=O)C(=O)NCCc2ccc(C(N)=O)cc2)n2c(=O)n(Cc3cccc4ccccc34)c(=O)n2C1c1ccccc1 (centres unmarked) [Structure 125]	< 0.01 µM
CC1=CC(C(=O)NC(CCCCN)C(=O)C(=O)NCCc2ccc(C(N)=O)cc2)N2C(=O)C(CC(C)C)(CC(C)C)C(=O)N2C1 (centres unmarked) [Structure 188]	< 0.01 µM
COc1ccccc1-n1c(=O)n2n(c1=O)C(C(=O)NC(CCCCN)C(=O)C(=O)NCCc1ccc(C(N)=O)cc1)C=CC2CC(C)C (centres unmarked) [Structure 114]	< 0.01 µM
CC(C)(C)CC1C=CC(C(=O)NC(CCCCN)C(=O)C(=O)NCCc2ccc(C(N)=O)cc2)n2c(=O)n(CCc3ccccc3)c(=O)n21 (centres unmarked) [Structure 142]	< 0.01 µM
CC1=CC(C(=O)NC(CCCCN)C(=O)C(=O)NCCc2ccc(C(N)=O)cc2)n2c(=O)n(Cc3cc(F)ccc3F)c(=O)n2C1c1ccccc1 (centres unmarked) [Structure 122]	< 0.01 µM
CC(C)CCn1c(=O)n2n(c1=O)C(C(=O)NC(CCCCN)C(=O)C(=O)NCCc1ccc(C(N)=O)cc1)C=CC2CC(C)CC(C)(C)C (centres unmarked) [Structure 126]	< 0.01 µM
CC(C)CC1C=CC(C(=O)NC(CCCCN)C(=O)C(=O)NCCc2ccc(C(N)=O)cc2)n2c(=O)n(Cc3cccs3)c(=O)n21 (centres unmarked) [Structure 116]	< 0.01 µM
CC(C)CC1C=CC(C(=O)NC(CCCCN)C(=O)C(=O)NCCc2ccc(C(N)=O)cc2)n2c(=O)n(Cc3cccc4ccccc34)c(=O)n21 (centres unmarked) [Structure 117]	< 0.01 µM
CCC=CCCC1C=CC(C(=O)NC(CCCCN)C(=O)C(=O)NCCc2ccc(C(N)=O)cc2)n2c(=O)n(Cc3ccc(C(F)(F)F)c(F)c3)c(=O)n21 (mixture of isomers) [Structure 104]	< 0.01 µM
CC1=CC(C(=O)NC(CCCCN)C(=O)C(=O)NCCc2ccc(C(N)=O)cc2)n2c(=O)n(CC(C)c3ccccc3)c(=O)n2C1c1ccccc1 (centres unmarked) [Structure 123]	< 0.01 µM
CC(C)CC1C=CC(C(=O)NC(CCCCN)C(=O)C(=O)NCc2ccc(C(N)=O)cc2)n2c(=O)n(C(c3ccccc3)c3ccccc3)c(=O)n21 (centres unmarked) [Structure 108]	< 0.01 µM
CC(CC1C=CC(C(=O)NC(CCCCN)C(=O)C(=O)NCCc2ccc(C(N)=O)cc2)n2c(=O)n(C(c3ccccc3)c3ccccc3)c(=O)n21)CC(C)(C)C (centres unmarked) [Structure 131]	< 0.01 µM
CC(C)CC1C=CC(C(=O)NC(CCCCN)C(=O)C(=O)NCc2ccc(C(N)=O)cc2)n2c(=O)n(Cc3cccc4ccccc34)c(=O)n21 (centres unmarked) [Structure 109]	< 0.01 µM
CC(Cn1c(=O)n2n(c1=O)C1CCCCC1=CC2C(=O)NC(CCCCN)C(=O)C(=O)NCCc1ccc(C(N)=O)cc1)c1ccccc1 (centres unmarked) [Structure 121]	< 0.01 µM
CC1=CC(C(=O)NC(CCCNC(=N)N)C(=O)c2nc3ccccc3s2)n2c(=O)n(Cc3ccccc3)c(=O)n2C1 (centres unmarked) [Structure 211]	< 0.01 µM
CC1=CC(C(=O)NC(CCCCN)C(=O)C(=O)NCCc2ccc(C(N)=O)cc2)n2c(=O)n(Cc3cc(F)ccc3F)c(=O)n2C1 (centres unmarked) [Structure 100]	< 0.01 µM

Second part, the compound after the results:

Ki	SMILES
< 0.01 µM	CC1=CC(C(=O)NC(CCCCN)C(=O)C(=O)NCCc2ccc(C(N)=O)cc2)n2c(=O)n(Cc3cccs3)c(=O)n2C1c1ccccc1 (centres unmarked) [Structure 124]
< 0.01 µM	CC(C)(C)CC1C=CC(C(=O)NC(CCCCN)C(=O)C(=O)NCCc2ccc(C(N)=O)cc2)n2c(=O)n(CC(c3ccccc3)c3ccccc3)c(=O)n21 (centres unmarked) [Structure 143]
< 0.01 µM	CC1C=CC(C(=O)NC(CCCCN)C(=O)C(=O)NCc2ccc(C(N)=O)cc2)n2c(=O)n(CCc3cccs3)c(=O)n21 (centres unmarked) [Structure 146]
< 0.01 µM	CC(CC1C=CC(C(=O)NC(CCCCN)C(=O)C(=O)NCCc2ccc(C(N)=O)cc2)n2c(=O)n(Cc3cc(F)ccc3F)c(=O)n21)CC(C)(C)C (centres unmarked) [Structure 135]
< 0.01 µM	CC(C)CC1C=CC(C(=O)NC(CCCCN)C(=O)C(=O)NCCc2ccc(C(N)=O)cc2)n2c(=O)n(CC(C)c3ccccc3)c(=O)n21 (centres unmarked) [Structure 111]
< 0.01 µM	CC(C)(C)CC1C=CC(C(=O)NC(CCCCN)C(=O)C(=O)NCCc2ccc(C(N)=O)cc2)n2c(=O)n(Cc3cc(F)ccc3F)c(=O)n21 (centres unmarked) [Structure 225]
< 0.01 µM	NCCCCC(NC(=O)C1C=C2CCCCC2n2c(=O)n(Cc3cc(F)ccc3F)c(=O)n21)C(=O)C(=O)NCCCc1ccc(C(N)=O)cc1 (centres unmarked) [Structure 226]
< 0.01 µM	CC(C)CC1C=CC(C(=O)NC(CCCCN)C(=O)C(=O)NCCc2ccc(C(N)=O)cc2)n2c(=O)n(Cc3ccccc3)c(=O)n21 (centres unmarked) [Structure 112]
< 0.01 µM	CC1=CC(C(=O)NC(CCCCN)C(=O)C(=O)NCCc2ccc(C(N)=O)cc2)n2c(=O)n(C(c3ccccc3)c3ccccc3)c(=O)n2C1 (centres unmarked) [Structure 138]
< 0.01 µM	CC1=CC(C(=O)NC(CCCCN)C(=O)C(=O)NCCc2ccc(C(N)=O)cc2)n2c(=O)n(Cc3cc(F)ccc3F)c(=O)n2C1 (centres unmarked) [Structure 222]
< 0.01 µM	CCC=CCCC1C=CC(C(=O)NC(CCCCN)C(=O)C(=O)NCCc2ccc(C(N)=O)cc2)n2c(=O)n(Cc3ccccc3)c(=O)n21 (mixture of isomers) [Structure 107]
< 0.01 µM	CC1=CC(C(=O)NC(CCCCN)C(=O)C(=O)NCCc2ccc(C(N)=O)cc2)N2C(=O)C(Cc3ccccc3)(Cc3ccccc3)C(=O)N2C1 (centres unmarked) [Structure 187]
< 0.01 µM	CC(CC1C=CC(C(=O)NC(CCCCN)C(=O)C(=O)NCCc2ccc(C(N)=O)cc2)n2c(=O)n(Cc3ccc(C(F)(F)F)c(F)c3)c(=O)n21)CC(C)(C)C (centres unmarked) [Structure 134]
< 0.01 µM	CC1=CC(C(=O)NC(CCCNC(=N)N)C(=O)c2nc3ccccc3s2)n2c(=O)n(Cc3ccccc3)c(=O)n2C1 (centres unmarked) [Structure 224]
< 0.01 µM	COc1ccccc1-n1c(=O)n2n(c1=O)C(C(=O)NC(CCCCN)C(=O)C(=O)NCCc1ccc(C(N)=O)cc1)C=CC2CC(C)CC(C)(C)C (centres unmarked) [Structure 127]
< 0.01 µM	CC(C)(C)CC1C=CC(C(=O)NC(CCCCN)C(=O)C(=O)NCCc2ccc(C(N)=O)cc2)n2c(=O)n(Cc3cc(F)ccc3F)c(=O)n21 (centres unmarked) [Structure 139]
< 0.01 µM	CCC=CCCC1C=CC(C(=O)NC(CCCCN)C(=O)C(=O)NCCc2ccc(C(N)=O)cc2)n2c(=O)n(C(Cc3ccccc3)c3ccccc3)c(=O)n21 (mixture of isomers) [Structure 105]
< 0.01 µM	NCCCCC(NC(=O)C1C=C2CCCCC2n2c(=O)n(Cc3cc(F)ccc3F)c(=O)n21)C(=O)C(=O)NCCc1ccc(C(N)=O)cc1 (centres unmarked) [Structure 120]
< 0.01 µM	CC1=CC(C(=O)NCC2CCC(C(=N)N)CC2)n2c(=O)n(CC(c3ccccc3)c3ccccc3)c(=O)n2C1 (centres unmarked) [Structure 221-18]
< 0.01 µM	CC1=CC(C(=O)NC(CCCCN)C(=O)C(=O)NCc2ccc(C(N)=O)cc2)N2C(=O)C(N)(Cc3ccccc3)C(=O)N2C1 (centres unmarked) [Structure 189]
< 0.01 µM	CC1=CC(C(=O)NC(CCCNC(=N)N)C(=O)c2nc3ccccc3s2)n2c(=O)n(CC(c3ccccc3)c3ccccc3)c(=O)n2C1 (centres unmarked) [Structure 215]
< 0.01 µM	CC1=CC(C(=O)NC(CCCCN)C(=O)C(=O)NCc2ccc(C(=O)NCCc3ccccc3)cc2)n2c(=O)n(Cc3cc(F)ccc3F)c(=O)n2C1 (centres unmarked) [Structure 102]
< 0.01 µM	NCCCCC(NC(=O)C1C=C2CCCCC2n2c(=O)n(Cc3cc(F)ccc3F)c(=O)n21)C(=O)C(=O)NCCc1ccc(C(N)=O)cc1 (centres unmarked) [Structure 101]
< 0.01 µM	CC(CC1C=CC(C(=O)NC(CCCCN)C(=O)C(=O)NCCc2ccc(C(N)=O)cc2)n2c(=O)n(Cc3ccccc3)c(=O)n21)CC(C)(C)C (centres unmarked) [Structure 132]
< 0.01 µM	CC1=CC(C(=O)NC(CCCCN)C(=O)C(=O)NCCc2ccc(C(N)=O)cc2)n2c(=O)n(C(Cc3ccccc3)c3ccccc3)c(=O)n2C1 (centres unmarked) [Structure 136]
< 0.01 µM	CC1=CC(C(=O)NC(CCCCN)C(=O)C(=O)NCCc2ccc(C(N)=O)cc2)n2c(=O)n(CC(F)(F)F)c(=O)n2C1 (centres unmarked) [Structure 145]
< 0.01 µM	CC(C)CC1C=CC(C(=O)NC(CCCCN)C(=O)C(=O)NCCc2ccc(C(N)=O)cc2)n2c(=O)n(Cc3cc(F)ccc3F)c(=O)n21 (centres unmarked) [Structure 113]
< 0.01 µM	CC1=CC(C(=O)NC(CCCNC(=N)N)C(=O)c2nc(C(N)=O)c[nH]2)n2c(=O)n(CC(c3ccccc3)c3ccccc3)c(=O)n2C1 (centres unmarked) [Structure 201]
< 0.01 µM	CC1=CC(C(=O)NC(CCCCN)C(=O)C(=O)NCCc2ccc(C(N)=O)cc2)n2c(=O)n(Cc3ccc(C(F)(F)F)c(F)c3)c(=O)n2C1 (centres unmarked) [Structure 137]
